The values below come from patent publication US20240376109A1, “PYRAZOLO[1,5-A]PYRIMIDINE COMPOUND FOR THE TREATMENT OF DERMAL DISORDERS” (OTSUKA PHARMACEUTICAL CO., LTD., priority 2021, published 2024).

Broadly, the IC50 is the concentration that gives 50% inhibition.

The target of the first assay is T1, PAR2 (Homo sapiens, UniProt P55085).
T1 construct: HEK293 cell lines derived from human embryonic kidney cultured in a MEM culture medium; endogenous in cells; host or cells: HEK293
T1 sequence (P55085 26-397): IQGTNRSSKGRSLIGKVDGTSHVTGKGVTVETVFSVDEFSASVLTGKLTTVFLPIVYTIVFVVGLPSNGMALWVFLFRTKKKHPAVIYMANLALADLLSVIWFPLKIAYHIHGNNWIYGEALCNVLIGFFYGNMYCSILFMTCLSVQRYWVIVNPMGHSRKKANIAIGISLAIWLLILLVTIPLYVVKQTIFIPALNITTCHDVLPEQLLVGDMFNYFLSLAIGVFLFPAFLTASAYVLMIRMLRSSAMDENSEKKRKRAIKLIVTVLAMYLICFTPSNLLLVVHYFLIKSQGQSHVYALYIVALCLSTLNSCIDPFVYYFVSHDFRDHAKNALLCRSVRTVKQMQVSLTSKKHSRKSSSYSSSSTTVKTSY
Briefly: Intracellular calcium concentration measurement (SLIGKV-NH2-induced calcium change, Fluo-8, FDSS/μCELL). It is filed as cell-based. The following applies: HEK293 cells; SLIGKV-NH2 10 μM-induced intracellular calcium change; read-out: IC50.
On to `CCCc1cc(CC2CCCCC2)nc2cc(C(=O)N3CCCCCC3)nn12` [Example 9, azepan-1-yl(5-(cyclohexylmethyl)-7-propylpyrazolo[1,5-a]pyrimidin-2-yl)methanone], for which the IC50 amounted to 74 nM.

As to `Cc1cc(CC2CCC(C)CC2)nc2cc(C(=O)N3CCCCCC3)nn12` (stereo not drawn) [Example 20], the IC50 is 24 nM.

Turning to `CC1CCC(Cc2cc(C(C)C)n3nc(C(=O)N4CCCCCC4)cc3n2)CC1` (stereo not drawn) [Example 21], the half-inhibitory concentration (IC50) was found to be 298 nM. Regarding `CC(C)c1cc(C23CC4CC(CC(C4)C2)C3)nc2cc(C(=O)N3CCCCCC3)nn12` [Example 22], the IC50 turned out to be 137 nM. Take `CC(C)(C)c1cc(C23CC4CC(CC(C4)C2)C3)nc2cc(C(=O)N3CCCCCC3)nn12` [Example 23]: the IC50 came to 30 nM.

Take `CC1(C)CCCCN1C(=O)c1cc2nc(C34CC5CC(CC(C5)C3)C4)cc(C(F)(F)F)n2n1` [Example 24]: the IC50 amounted to 9 nM. Still for that read-out and setting: the figure for `O=C(c1cc2nc(CC3CCCCC3)cc(C(F)(F)F)n2n1)N1CCCCCCC1` [Example 25] is 49 nM; for `O=C(c1cc2nc(CC34CC5CC(CC(C5)C3)C4)cc(C(F)(F)F)n2n1)N1CCCCCC1` [Example 26] it is 80 nM. Still for that read-out and setting: in the case of `O=C(c1cc2nc(CC3CCCCC3)cc(C(F)(F)F)n2n1)N1CCCCCCCC1` [Example 27] it was 138 nM; in that of `CC(C)(C)c1cc(CC2CCCCC2)nc2cc(C(=O)N3CCCCCC3)nn12` [Example 28, azepan-1-yl-[7-tert-butyl-5-(cyclohexylmethyl)pyrazolo[1,5-a]pyrimidin-2-yl]methanone], 60 nM.

`O=C(c1cc2nc(CC3CCCCC3)cc(C3CCCC3)n2n1)N1CCCCCC1` [Example 29]: the IC50 worked out at 467 nM. For the compound `CC1(C)CCCCN1C(=O)c1cc2nc(CC3CCCC3)cc(C(F)(F)F)n2n1` [Example 30], the IC50 was found to be 102 nM. With `CC1(C)CCCCN1C(=O)c1cc2nc(CC3CCCCC3)cc(C(F)(F)F)n2n1` [Example 31], the IC50 came out at 81 nM. As for `CCC(CC)c1cc(CC2CCCC2)nc2cc(C(=O)N3CCCCCC3)nn12` [Example 33], the IC50 came to 51 nM.

For `CC(C)c1cc(C2CCCCC2)nc2cc(C(=O)N3CCCCCC3)nn12` [Example 34], the IC50 came to 265 nM.

`CCc1cc(CC2CCCCC2)nc2cc(C(=O)N3CCCCC3(C)C)nn12` [Example 35]: the IC50 amounted to 130 nM. Take `O=C(c1cc2nc(CC3CCCCC3)cc(C3CC3)n2n1)N1CCCCCC1` [Example 36]: the IC50 came to 369 nM. On the same count and under the same terms, in the case of `CCC(C)c1cc(CC2CCCC2)nc2cc(C(=O)N3CCCCCC3)nn12` (stereo not drawn) [Example 38] it was 102 nM; in that of `CC(C)c1cc(CC2CCCCC2)nc2cc(C(=O)N3CCCCC3(C)C)nn12` [Example 39], 64 nM; in that of `CC(C)Cc1cc(CC2CCCCC2)nc2cc(C(=O)N3CCCCCC3)nn12` [Example 40], 184 nM.

For the compound `O=C(c1cc2nc(CC3CCCC3)cc(C(F)(F)F)n2n1)N1CCCCCCCC1` [Example 41], the IC50 is 246 nM. On to `COC1CCN(C(=O)c2cc3nc(CC4CCCCC4)cc(C(C)C)n3n2)C(C)(C)C1` (stereo not drawn) [Example 42], for which the IC50 turned out to be 40 nM. As for `CC(C)(C)c1cc(C2CCCCC2)nc2cc(C(=O)N3CCCCCC3)nn12` [Example 43], the IC50 came to 185 nM. Same read-out and setting: in the case of `CCCCCc1cc(CC2CCCCC2)nc2cc(C(=O)N3CCCCCC3)nn12` [Example 44] it was 208 nM; in that of `CC(C)c1cc(CC2CCC2)nc2cc(C(=O)N3CCCCCC3)nn12` [Example 45], 632 nM; in that of `CC(C)c1cc(CC2CCCCCC2)nc2cc(C(=O)N3CCCCCC3)nn12` [Example 46], 99 nM. Turning to `CCC(C)c1cc(CC2CCCCC2)nc2cc(C(=O)N3CCCCCC3)nn12` (stereo not drawn) [Example 47], the IC50 is 146 nM. With `CCC(CC)c1cc(CC2CCCCC2)nc2cc(C(=O)N3CCCCCC3)nn12` [Example 48], the IC50 is 105 nM.

On to `CC(C)c1cc(CC2CCCCCC2)nc2cc(C(=O)N3CCCCC3(C)C)nn12` [Example 49], for which the IC50 was 119 nM. In the case of `CC(C)c1cc(CC2CCCCC2)nc2cc(C(=O)N3CCSCC3(C)C)nn12` [Example 50], the IC50 turned out to be 43 nM. As for `CC(C)c1cc(CC2CCCC2)nc2cc(C(=O)N3CCCCCCC3)nn12` [Example 51], the half-maximal inhibitory concentration (IC50) was found to be 209 nM. Still for that read-out and setting: in the case of `CC(C)c1cc(CC2CCCCC2)nc2cc(C(=O)N3CCCCCCC3)nn12` [Example 52] it was 107 nM; in that of `O=C(c1cc2nc(C3CCC(F)(F)CC3)cc(C(F)(F)F)n2n1)N1CCCCCC1` [Example 56], 283 nM; in that of `CC1(c2cc(C(F)(F)F)n3nc(C(=O)N4CCCCCC4)cc3n2)CCCCC1` [Example 57], 308 nM.

`CCCCC1CCC(c2cc(C(F)(F)F)n3nc(C(=O)N4CCCCCC4)cc3n2)CC1` (stereo not drawn) [Example 58]: the IC50 stood at 464 nM. With `O=C(c1cc2nc(C3CCCCCC3)cc(C(F)(F)F)n2n1)N1CCCCCC1` [Example 60], the IC50 is 234 nM. For the compound `CC1(C)CCCCCN1C(=O)c1cc2nc(C34CC5CC(CC(C5)C3)C4)cc(C(F)(F)F)n2n1` [Example 61], the IC50 stood at 96 nM. For the compound `CC1(C)COCCN1C(=O)c1cc2nc(C34CC5CC(CC(C5)C3)C4)cc(C(F)(F)F)n2n1` [Example 62], the IC50 was 52 nM.

In the case of `COC1CCN(C(=O)c2cc3nc(C45CC6CC(CC(C6)C4)C5)cc(C(F)(F)F)n3n2)C(C)(C)C1` (stereo not drawn) [Example 63], the IC50 was 12 nM. As to `CC(C)c1cc(C23CC4CC(CC(C4)C2)C3)nc2cc(C(=O)N3CCC(O)CC3(C)C)nn12` (stereo not drawn) [Example 64], the IC50 is 17 nM. The same measure, in the same setting: the figure for `CC1(C)COCCN1C(=O)c1cc2nc(CC3CCCCC3)cc(C(F)(F)F)n2n1` [Example 66] is 241 nM. Regarding `CC1(C)CSCCN1C(=O)c1cc2nc(C3CCCC3)cc(C(F)(F)F)n2n1` [Example 67], the IC50 was 174 nM. `CCC(CC)c1cc(CC2CCCC2)nc2cc(C(=O)N3CCCC(=O)C3(C)C)nn12` [Example 68]: the half-maximal inhibitory concentration (IC50) came to 15 nM. Turning to `CCCCCCc1cc(CC2CCCCC2)nc2cc(C(=O)N3CCCCCC3)nn12` [Example 69], the IC50 is 286 nM. For the compound `CCC(CC)c1cc(CC2CCCCC2)nc2cc(C(=O)N3CCC(O)CC3(C)C)nn12` (stereo not drawn) [Example 73], the IC50 was determined as 33 nM.

As to `CC(C)c1cc(CCC2CCCCC2)nc2cc(C(=O)N3CCSCC3(C)C)nn12` [Example 74], the IC50 amounted to 386 nM. Take `CCC(C)c1cc(CC2CCCC2)nc2cc(C(=O)N3CCCCC3(C)C)nn12` (stereo not drawn) [Example 75]: the 50% inhibitory concentration (IC50) stood at 89 nM. Turning to `CC(C)c1cc(CC2CCCCC2)nc2cc(C(=O)N3CCOCC3(C)C)nn12` [Example 76], the IC50 came out at 121 nM. Take `CC(F)(F)c1cc(CC2CCCCC2)nc2cc(C(=O)N3CCCCCC3)nn12` [Example 77]: the IC50 turned out to be 273 nM. As to `CCC(C)c1cc(CC2CCCC2)nc2cc(C(=O)N3CCCCCCC3)nn12` (stereo not drawn) [Example 78], the IC50 amounted to 247 nM. Take `CCC(CC)c1cc(CC2CCCC2)nc2cc(C(=O)N3CCCCCCC3)nn12` [Example 79]: the IC50 stood at 145 nM. As to `CC(C)c1cc(CC2CCCC2)nc2cc(C(=O)N3CCC=CCC3)nn12` [Example 80], the IC50 was found to be 250 nM. `CC(C)c1cc(CC2CCCCC2)nc2cc(C(=O)N3CCC=CCC3)nn12` [Example 81]: the IC50 was determined as 246 nM.

The same assay, now with this note: IC50 (nM).
Regarding `O=C(c1cc2nc(NC34CC5CC(CC(C5)C3)C4)cc(C(F)(F)F)n2n1)N1CCCCCC1` [Example 82], the IC50 was 76 nM.
